Results: patent US20230292776A1, “GAS PHASE TREATMENT OF PRODUCE” (priority 2022, published 2023)

Columns and labels:
avocados [1] = system: avocados; parameters: species or system avocado; conditions: in vivo
Method: Example 11. The ripening characteristics of avocados exposed to AITC vapor was analyzed. Treatment groups consisted of avocados that were: exposed to the vapor of 125 μL of AITC in a Petri dish for 30 min and 18 hours; exposed to the vapor of 500 μL of AITC for 30 minutes and 18 hours; untreated and kept 18 hours in a bin; and treated with a coating agent. Two sets of the preceding test groups were studied. One set was treated when cold along with coated fruit (i.e., fruit treated with a coating agent (95 wt % glyceryl monostearate and 5 wt % sodium stearate) and another set was treated when warm (one day out of cold storage). Daily measurements were made of respiration and firmness (using a durometer). At the start of the test, the avocados were placed in cold storage. After one day, the cold treated avocados were treated with AITC directly after removal from cold storage. The coated group was treated at this time. The warm treated avocados were allowed to warm to room temperature. On the second day, measurements were begun on the cold treated avocados and AITC treatments began on the warm treated samples. On the third day, measurements began on the warm treated groups. […]
Example 23: The ripening characteristics of avocados exposed to AITC vapor, a coating agent (95 wt % glyceryl monostearate and 5 wt % sodium stearate), and AITC plus the coating agent was analyzed. […]

avocados [2] = assay: Durometer shore (firmness, ripening) of treated avocados; type: in vivo, avocado; conditions: for average increase of shore over uninfected and untreated avocados: Example 22
Method: Example 9. The antifungal activity of a range of AITC and carvacrol vapor exposure times was tested against Cg in avocados. To measure the effect of the various treatments on ripening, durometer shore was taken after 7 days of incubation at ambient temperature and high humidity. All samples were wounded by removing the stem and infected by dispensing 1000 Cg spores suspended in 10 μL of water in the wound. The test groups consisted of avocados that were: infected and left untreated on the benchtop; infected and left untreated under a fume hood; exposed to the vapor of 3 mL of AITC in a Petri dish for 24 hours, 48 hours, and 72 hours; and exposed to the vapor of 3 mL of carvacrol in a Petri dish for 72 hours. FIG. 11 quantifies the infection results. […] All exposure times to AITC vapor reduced the incidence of Cg mold compared to the untreated samples. A 24 hour AITC exposure reduced the incidence of Cg mold by 90%. A 48 hour AITC exposure reduced the incidence of Cg mold by 97%. A 72 hour AITC exposure reduced the incidence of Cg mold by 83%.
Example 10. The antifungal activity of a range of AITC vapor exposure times were tested against Cg in avocados. To measure the effect of the various treatments on ripening, durometer shore was taken after 6 days of incubation at ambient temperature and high humidity. All samples were wounded by removing the stem and infected by dispensing 1000 Cg spores suspended in 10 μL of water in each wound. The test groups consisted of avocados that were: infected and left untreated on the benchtop; infected and left untreated in a fume hood; exposed to the vapor of 3 mL of AITC in a Petri dish for 24 hours, 48 hours, and 72 hours. FIG. 13 quantifies the infection results. […] All exposure times to AITC vapor reduced the incidence of Cg mold compared to the untreated samples.
Example 21. The antifungal activity of avocados exposed to AITC vapor and prochloraz was tested against Cg in avocados. To measure the effect of the various treatments on ripening, durometer shore was taken after 5 days of incubation at ambient temperature (about 20° C. to about 25° C.) and high humidity (about 88% relative humidity to about 93% relative humidity). All samples were wounded by removing the stem and infected by dispensing 1000 Cg spores suspended in 10 μL of water in the wound. Exposure to vapor was done by placing the avocados in an airtight container, dispensing AITC onto Whatman filter paper discs, suspending the discs in front of a battery-powered fan, closing the container and incubating the avocados for 30 minutes. After vapor exposure, the avocados were left at ambient temperature, high humidity, and assessed for Cg mold on day 5. Treatment groups consisted of avocados that were: exposed for 30 minutes to the vapor of 125 μL of AITC disposed on a filter paper disc; dipped in a solution of 0.1 g/L of prochloraz and placed to dry on a rack in front of a fan for 30 min; infected and left untreated; and uninfected and untreated. […] To prepare the 0.1 g/L of prochloraz, 10 mg of prochloraz was mixed with 10 mL of ethanol and 90 mL of water. […] A 24 hour AITC exposure reduced the incidence of Cg mold by 90%. […] The mean shore value for the untreated avocados was 28.8 (standard deviation (SD)=10.8). The mean shore value for the infected avocados was 47.3 (SD=11.8). The mean shore value of the positive control, prochloraz treated avocados was 44.3 (SD=14.7). The mean shore value of the AITC treated avocados was 61.1 (SD=10.5).
Durometer Shore Measurement: A Fruit Hardness Tester— HPE III Fff w/Sphere Ø 5.0 mm Test Anvil is used for the measurements. The Operating Procedure is as follows: • 1) At room temperature and 1 atm pressure, switch on the measuring device and press the hull or sleeve against the specimen so that the contact surface of the pressure plate rests on the fruit. […]

C=CCN=C=S [AITC, allyl isothiocyanate]
effect on avocado peel and firmness (avocados [1]): causes darkening and thickening of the avocado peel and a prolonged feeling a firmness | average increase of durometer shore over untreated avocados (avocados [2]; Example 9, all AITC treatments (3 mL; 24, 48, 72 hours), after 7 days, P value<0.0001): 20.3 shore | average increase of durometer shore over infected avocados (avocados [2]; Example 10, all AITC treatments (3 mL; 24, 48, 72 hours), after 6 days, P value<0.005): 15.4 shore | shore higher than the untreated avocados (avocados [2]; Example 21, 125 μL, 30 minutes, after 5 days): more than 30 shore | mean shore value (avocados [2]; Example 21, Cg-infected avocados, AITC 125 μL 30 minutes, prochloraz 0.1 g/L dip, after 5 days): 61.1 (SD=10.5) | average increase of shore over uninfected and untreated avocados (avocados [2]; 250 μL, 30 minutes, after 5 days, P value=0.0016): about 10 shore | average increase of shore over uninfected and untreated avocados (avocados [2]; 500 μL, 30 minutes, after 5 days, P value<0.0001): about 28.5 shore | average increase of shore over untreated avocados (avocados [2]; Example 23, 500 μL AITC vapor, coating agent 40 g/L dip, after 11 days, P value<0.0001): 22.5 shore
